In patent publication US20230277452A1, “COMPOSITIONS, DEVICES AND METHODS FOR TREATING NASAL, OTIC AND OTHER TISSUE INFECTION AND/OR INFLAMMATION” (priority 2020, published 2023):

Key:
[1] = cited from earlier work
[2] = humans with psoriasis, topical betamethasone dipropionate 0.05% spray or lotion BID for 15 days; majority of subjects not measurable; cited from earlier work
[3] = in vivo; settings: male, Merino, sheep, in vivo
Experimental: The control article was 0.9% saline.
Blood was collected (via a jugular vein cannula inserted during surgery) during the 10-day post-dose phase for pharmacokinetics, hematology, clinical chemistry, glucose, and morning cortisol analysis.
Because of the variability in the volume of the sinus in sheep, the total volume varied from 5 to 15 mL. Doses calculated by body weight and body surface area (BSA) are also shown.

[4] = tested on: Streptococci, Staphylococci, Gardnerella vaginalis, and Corynebacteria; settings: cited from earlier work
[5] = tested on: Pseudomonas aeruginosa; settings: cited from earlier work
[6] = Recovery of force-degraded fluticasone propionate spiked into placebo and of active cream, HPLC; assay type: physicochemical; settings: Spiked into placebo
[7] = Forced degradation of fluticasone propionate, percent recovery by HPLC; assay type: physicochemical
Experimental: A similar analysis was performed of the 0.005% fluticasone propionate cream (lot #2021-07-01).

[8] = Betamethasone plasma concentration, Mean
[9] = Individual betamethasone plasma concentrations

## CCC(=O)OCC(=O)[C@@]1(OC(=O)CC)[C@@H](C)C[C@H]2[C@@H]3CCC4=CC(=O)C=C[C@]4(C)[C@@]3(F)[C@@H](O)C[C@@]21C [Betamethasone dipropionate, 9-Fluoro-11β,17,21-trihydroxy-16β-methylpregna-1,4-diene-3,20-dione 17,21-dipropionate]
[1]
  Biological Half Life: 36-54 Hours
[2]
  plasma concentration: < 0.005 ng/mL

## C[C@H]1C[C@H]2[C@@H]3CCC4=CC(=O)C=C[C@]4(C)[C@@]3(F)[C@@H](O)C[C@]2(C)[C@@]1(O)C(=O)CO [Betamethasone, betamethasone]
[3]
  AUC(0-inf): 35.2 ± 8.3 ng·h/mL
  AUC(0-t): 33.5 ± 8.9 ng·h/mL
  Cmax: 0.98 ± 0.397 ng/mL
  Tmax: 24 h
  plasma levels detected through: 3 days post-dose
  time of maximum plasma levels: about 24 hr post-dose
[3]; [8]
  concentration at 0 h: 0 ng/mL
  concentration at 0.5 h: 0.152 ng/mL
  concentration at 1 h: 0.307 ng/mL
  concentration at 2 h: 0.518 ng/mL
  concentration at 6 h: 0.74 ng/mL
  concentration at 24 h: 0.964 ng/mL
  concentration at 48 h: 0.223 ng/mL
  concentration at 72 h: 0.071 ng/mL
[3]; [9]
  concentration at 0 h: 0 ng/mL
  concentration at 48 h: 0.229 ng/mL

## C[C@H]1C[C@@H]2[C@H]([C@@H](O)C[C@@]3(C)[C@H]2CC[C@]3(O)C(=O)CO)[C@@]2(C)C=CC(=O)C=C12 [Methyl-prednisolone, methylprednisolone]
[1]
  Biological Half Life: 18-36 Hours

## Clc1ccccc1C(c1ccccc1)(c1ccccc1)n1ccnc1 [clotrimazole]
[4]
  antibacterial activity: antibacterial activity
[5]
  effect on Pseudomonas aeruginosa: reduction

## CCC(=O)O[C@]1(C(=O)SCF)[C@H](C)C[C@H]2[C@@H]3C[C@H](F)C4=CC(=O)C=C[C@]4(C)[C@@]3(F)[C@@H](O)C[C@@]21C [fluticasone propionate]
[6]; Acid
  Peak Area FP: 2.377
  Peak Area RRT = 0.32: 0.033
  Peak Area RRT = 0.33: no peak
  Peak Area RRT = 1.17: 0.221
  Total MFM-Related Area: 2.631
[6]; Base
  Peak Area FP: 2.395
  Peak Area RRT = 0.32: 0.032
  Peak Area RRT = 0.33: no peak
  Peak Area RRT = 1.17: 0.166
  Total MFM-Related Area: 2.593
[6]; Control
  Peak Area FP: 2.607
  Peak Area RRT = 0.32: no peak
  Peak Area RRT = 0.33: 0.012
  Peak Area RRT = 1.17: 0.046
  Total MFM-Related Area: 2.665
[6]; Heat
  Peak Area FP: 2.924
  Peak Area RRT = 0.32: no peak
  Peak Area RRT = 0.33: no peak
  Peak Area RRT = 1.17: 0.183
  Total MFM-Related Area: 3.107
[6]; Light
  Peak Area FP: 2.599
  Peak Area RRT = 0.33: no peak
  Peak Area RRT = 1.17: 0.159
  Total MFM-Related Area: 2.791
[6]; Peroxide
  Peak Area FP: 2.424
  Peak Area RRT = 0.32: no peak
  Peak Area RRT = 0.33: no peak
  Peak Area RRT = 1.17: no peak
  Total MFM-Related Area: 2.424
[7]; Acid (0.1N HCl, 1 hour)
  Actual Amount: 12.1791 µg/mL
[7]; Base (0.1N NaOH, 1 hour)
  Actual Amount: 11.7484 µg/mL
[7]; Control
  Actual Amount: 12.5695 µg/mL
[7]; Heat (60° C., 3 days)
  Actual Amount: 12.0739 µg/mL
[7]; Light (white light, 3 days)
  Actual Amount: 11.6609 µg/mL
[7]; Peroxide (3% H2O2, 1 hour)
  Actual Amount: 16.4961 µg/mL

## C[C@]12CCC(=O)C=C1CC[C@@H]1[C@@H]2[C@@H](O)C[C@@]2(C)[C@H]1CC[C@]2(O)C(=O)CO [hydrocortisone]
[1]
  Biological Half Life: 8-12 Hours

## C[C@]12C=CC(=O)C=C1CC[C@@H]1[C@@H]2[C@@H](O)C[C@@]2(C)[C@H]1CC[C@]2(O)C(=O)CO [prednisolone]
[1]
  Biological Half Life: 18-36 Hours

## C[C@]12C=CC(=O)C=C1CC[C@H]1[C@@H]3C[C@@H](O)[C@](O)(C(=O)CO)[C@@]3(C)C[C@H](O)[C@@]12F [triamcinolone]
[1]
  Biological Half Life: 18-36 Hours
